These results are taken from patent US20220322719A1, “INTESTINAL HEALTH PROMOTING COMPOSITIONS” (NSE Products, Inc., priority 2016, published 2022).

One data set concerns Caco-2 cell monolayers. Description: TNFα-induced decrease of transepithelial electrical resistance (TEER) in Caco-2 monolayers. It counts as cell-based. The settings on record: FIGS. 17-20.
The conditions of data set [1]: 500 mg isotopically labeled, single dose, male subjects (n=8); cited from earlier work.

As for `Oc1cc(O)c2c(c1)OC(c1ccc(O)c(O)c1)C(O)C2` (stereo not drawn) [catechins, catechin], the “TNFα induced losses of intestinal barrier integrity (TEER)” value in the data set with Caco-2 cell monolayers is on record as “prevents TNFα induced losses of intestinal barrier integrity”.

In the case of `OC[C@H]1O[C@@H](Oc2cc3c(O)cc(O)cc3[o+]c2-c2ccc(O)c(O)c2)[C@H](O)[C@@H](O)[C@@H]1O` [cyanidin-3-glucoside], in data set [1], the adverse effects entry is “no adverse effects” and the “time metabolites were present in the circulation” value is on record as “less than or equal to 48 hours”.
